Assay results: patent US7223865B2, “Chromogenic compounds, and use thereof as enzyme substrates” (Biomerieux, priority 2003, dated 2007)

How the values were obtained:
Format in all cases: cell-based
[1] = tested on: Enterobacter cloacae (061); assay: L-alanine-aminopeptidase activity on gelled medium, Example 4; conditions: 0.3 g/l, after the addition of HCl
Method: (§1) A gelled medium comprising L-Ala-2-MeOAPA or L-Ala-2,5-diMeOAPA is prepared as follows: 46.37 g of Columbia agar are added to 1 liter of distilled water and then autoclaved. This reaction medium is separated into two media of equivalent volume. Each of these media comprises, respectively: 0.3 g/l of L-Ala-2-MeOAPA, introduced by means of a stock solution in DMSO, and 0.3 g/l of L-Ala-2,5-diMeOAPA, also introduced by means of a stock solution in DMSO. Microorganisms derived from the applicant's collection were seeded onto each of the media, by delimitation as three dials, using a suspension at 0.5 McFarland. […] The color of these colonies and also the intensity of this color were noted after the addition of HCl.

[2] = tested on: Streptococcus agalactiae (001); assay: as above; conditions: 0.3 g/l, after the addition of HCl
Method: as §1

Proteus mirabilis (037) = assay: as above; conditions: 0.3 g/l, after the addition of HCl
Method: as §1

Listeria innocua (036) [3] = assay: as above; conditions: 0.3 g/l, after the addition of HCl
Method: as §1

[4] = tested on: Enterococcus faecalis (117); assay: as above; conditions: 0.3 g/l, after the addition of HCl
Method: as §1

[5] = tested on: Staphylococcus aureus (035); assay: as above; conditions: 0.3 g/l, after the addition of HCl
Method: as §1

Candida albicans (077) = assay: as above; conditions: 0.3 g/l, after the addition of HCl
Method: as §1

[6] = tested on: Klebsiella pneumoniae (023); assay: as above; conditions: 0.3 g/l, after the addition of HCl
Method: as §1

Citrobacter koseri (012) = assay: as above; conditions: 0.3 g/l, after the addition of HCl
Method: (§2) A gelled medium comprising L-Ala-2-MeOAPA or L-Ala-2,5-diMeOAPA is prepared as follows: 46.37 g of Columbia agar are added to 1 liter of distilled water and then autoclaved. This reaction medium is separated into two media of equivalent volume. Each of these media comprises, respectively: 0.3 g/l of L-Ala-2-MeOAPA, introduced by means of a stock solution in DMSO, and 0.3 g/l of L-Ala-2,5-diMeOAPA, also introduced by means of a stock solution in DMSO. Microorganisms derived from the applicant's collection were seeded onto each of the media, by delimitation as three dials, using a suspension at 0.5 McFarland. The dishes were incubated at 37° C. for 24 hours. The color of these colonies and also the intensity of this color were noted after the addition of HCl.

Escherichia coli (032) [7] = assay: as above; conditions: 0.3 g/l, after the addition of HCl
Method: as §2

[8] = tested on: Streptococcus pyogenes (067); assay: L-alanine-aminopeptidase activity on gelled medium, Example 2
Method: (§3) A gelled medium comprising L-Ala-4-AP-10-AA as substrate is prepared as follows: 46.37 g of Columbia agar are added to 1 liter of distilled water and then autoclaved. The reaction medium is separated into three media of equivalent volume. Each of these media comprises, respectively, 0.1 g/l, 0.2 g/l, 0.4 g/l of L-Ala-4-AP-10-AA provided by means of a stock solution in DMSO.
(§4) Microorganisms derived from the applicant's collection were seeded onto each of the media, by delimitation as three dials, using a suspension at 0.5 McFarland. The dishes were incubated at 37° C. for 48 hours. The colonies formed were examined visually after incubation for 24 and 48 hours. The color of these colonies and also the intensity of this color were noted.
(§5) The results are expressed as color intensity, using an arbitrary scale range of from 0 to 4 as a basis.

Citrobacter koseri (090) = assay: as above; conditions: for Intensity: scale 0 to 4
Method: as §3, §4, §5

Escherichia coli (032) [9] = assay: as above; conditions: for Intensity: scale 0 to 4
Method: as §3, §4, §5

Candida albicans (056) = assay: as above
Method: as §3, §4, §5

[10] = tested on: Enterococcus faecalis (075); assay: as above; conditions: for Intensity: scale 0 to 4
Method: as §3, §4, §5

[11] = tested on: Staphylococcus aureus (070); assay: as above
Method: as §3, §4, §5

Listeria innocua (036) [12] = assay: as above
Method: as §3, §4, §5

Proteus mirabilis (103) = assay: as above; conditions: for Intensity: scale 0 to 4
Method: as §3, §4, §5

[13] = tested on: Klebsiella pneumoniae (023); assay: as above; conditions: for Intensity: scale 0 to 4
Method: as §3, §4, §5

COc1cc(-c2c3ccccc3nc3ccccc23)ccc1NC(=O)[C@H](C)N [L-Ala-2-MeOAPA, L-alanyl-2-methoxy-aminophenylacridine]
inhibited: Color ([2]; 24 H) | Color ([2]; 48 h) | Color ([4]; 24 H) | Color ([4]; 48 h) | Color (Candida albicans (077); 24 H) | Color (Candida albicans (077); 48 h)
0.5: Intensity (Escherichia coli (032) [7]; 24 H)
1.5: Intensity (Proteus mirabilis (037); 48 h)
orange: Color (Proteus mirabilis (037); 24 H) | Color (Proteus mirabilis (037); 48 h) | Color (Citrobacter koseri (012); 24 H) | Color (Escherichia coli (032) [7]; 24 H)
colorless*: Color (Listeria innocua (036) [3]; 24 H) | Color (Listeria innocua (036) [3]; 48 h) | Color ([5]; 24 H) | Color ([5]; 48 h)
0: Intensity (Listeria innocua (036) [3]; 24 H) | Intensity (Listeria innocua (036) [3]; 48 h) | Intensity ([5]; 24 H) | Intensity ([5]; 48 h)
3: Intensity ([6]; 24 H)
3.5: Intensity ([6]; 48 h) | Intensity (Citrobacter koseri (012); 48 h) | Intensity (Escherichia coli (032) [7]; 48 h)
pink: Color ([1]; 24 H) | Color ([1]; 48 h) | Color ([6]; 24 H) | Color ([6]; 48 h) | Color (Citrobacter koseri (012); 48 h) | Color (Escherichia coli (032) [7]; 48 h)
1: Intensity (Proteus mirabilis (037); 24 H)
2: Intensity ([1]; 24 H) | Intensity ([1]; 48 h) | Intensity (Citrobacter koseri (012); 24 H)

C=CC[n+]1c2ccccc2c(-c2ccc(NC(=O)[C@H](C)N)cc2)c2ccccc21.[Cl-] [L-Ala-4-AP-10-AA, L-alanyl-9-(4-aminophenyl)-10-allylacridinium chloride]
3: Intensity (Citrobacter koseri (090); 0.4 g/l, 24 H) | Intensity (Escherichia coli (032) [9]; 0.4 g/l, 48 h) | Intensity (Proteus mirabilis (103); 0.4 g/l, 24 H) | Intensity (Proteus mirabilis (103); 0.4 g/l, 48 h) | Intensity ([13]; 0.4 g/l, 24 H)
orange: Color ([10]; 0.2 g/l, 24 H) | Color ([10]; 0.2 g/l, 48 h) | Color ([10]; 0.4 g/l, 24 H) | Color ([10]; 0.4 g/l, 48 h)
beige: Color (Citrobacter koseri (090); 0.1 g/l, 24 H) | Color (Citrobacter koseri (090); 0.1 g/l, 48 h) | Color (Escherichia coli (032) [9]; 0.1 g/l, 24 H) | Color (Escherichia coli (032) [9]; 0.1 g/l, 48 h) | Color (Proteus mirabilis (103); 0.1 g/l, 24 H) | Color (Proteus mirabilis (103); 0.1 g/l, 48 h) | Color ([13]; 0.1 g/l, 24 H) | Color ([13]; 0.1 g/l, 48 h)
colorless: Color ([8]; 0.1 g/l, 48 h) | Color ([8]; 0.2 g/l, 48 h) | Color ([8]; 0.4 g/l, 48 h) | Color (Candida albicans (056); 0.1 g/l, 24 H) | Color (Candida albicans (056); 0.1 g/l, 48 h) | Color (Candida albicans (056); 0.2 g/l, 24 H) | Color (Candida albicans (056); 0.2 g/l, 48 h) | Color (Candida albicans (056); 0.4 g/l, 24 H) | Color (Candida albicans (056); 0.4 g/l, 48 h) | Color ([10]; 0.1 g/l, 24 H) | Color ([10]; 0.1 g/l, 48 h) | Color (Listeria innocua (036) [12]; 0.1 g/l, 24 H) | Color (Listeria innocua (036) [12]; 0.1 g/l, 48 h) | Color (Listeria innocua (036) [12]; 0.2 g/l, 24 H) | Color (Listeria innocua (036) [12]; 0.2 g/l, 48 h) | Color (Listeria innocua (036) [12]; 0.4 g/l, 24 H) | Color (Listeria innocua (036) [12]; 0.4 g/l, 48 h)
traces: Intensity ([10]; 0.2 g/l, 24 H) | Intensity ([10]; 0.4 g/l, 24 H) | Intensity (Proteus mirabilis (103); 0.1 g/l, 24 H) | Intensity (Proteus mirabilis (103); 0.1 g/l, 48 h) | Intensity ([13]; 0.1 g/l, 24 H) | Intensity ([13]; 0.1 g/l, 48 h)
3.5: Intensity (Citrobacter koseri (090); 0.4 g/l, 48 h) | Intensity ([13]; 0.4 g/l, 48 h)
0.5: Intensity (Citrobacter koseri (090); 0.1 g/l, 24 H) | Intensity (Citrobacter koseri (090); 0.1 g/l, 48 h) | Intensity (Escherichia coli (032) [9]; 0.1 g/l, 24 H) | Intensity (Escherichia coli (032) [9]; 0.1 g/l, 48 h) | Intensity ([10]; 0.2 g/l, 48 h) | Intensity (Proteus mirabilis (103); 0.2 g/l, 24 H)
inhibited: Color ([8]; 0.1 g/l, 24 H) | Color ([8]; 0.2 g/l, 24 H) | Color ([8]; 0.4 g/l, 24 H) | Color ([11]; 0.1 g/l, 24 H) | Color ([11]; 0.1 g/l, 48 h) | Color ([11]; 0.2 g/l, 24 H) | Color ([11]; 0.2 g/l, 48 h) | Color ([11]; 0.4 g/l, 24 H) | Color ([11]; 0.4 g/l, 48 h)
1: Intensity (Citrobacter koseri (090); 0.2 g/l, 24 H) | Intensity ([10]; 0.4 g/l, 48 h) | Intensity (Proteus mirabilis (103); 0.2 g/l, 48 h) | Intensity ([13]; 0.2 g/l, 24 H)
2.5: Intensity (Escherichia coli (032) [9]; 0.4 g/l, 24 H)
pink-: Color (Citrobacter koseri (090); 0.2 g/l, 24 H) | Color (Citrobacter koseri (090); 0.2 g/l, 48 h) | Color (Citrobacter koseri (090); 0.4 g/l, 24 H) | Color (Citrobacter koseri (090); 0.4 g/l, 48 h) | Color (Escherichia coli (032) [9]; 0.2 g/l, 24 H) | Color (Escherichia coli (032) [9]; 0.2 g/l, 48 h) | Color (Escherichia coli (032) [9]; 0.4 g/l, 24 H) | Color (Escherichia coli (032) [9]; 0.4 g/l, 48 h) | Color (Proteus mirabilis (103); 0.2 g/l, 24 H) | Color (Proteus mirabilis (103); 0.2 g/l, 48 h) | Color (Proteus mirabilis (103); 0.4 g/l, 24 H) | Color (Proteus mirabilis (103); 0.4 g/l, 48 h) | Color ([13]; 0.2 g/l, 24 H) | Color ([13]; 0.2 g/l, 48 h) | Color ([13]; 0.4 g/l, 24 H) | Color ([13]; 0.4 g/l, 48 h)
2: Intensity (Citrobacter koseri (090); 0.2 g/l, 48 h) | Intensity (Escherichia coli (032) [9]; 0.2 g/l, 24 H) | Intensity (Escherichia coli (032) [9]; 0.2 g/l, 48 h) | Intensity ([13]; 0.2 g/l, 48 h)
